According to patent US20250313535A1, “ALPHA 4 BETA 7 INTEGRIN MODULATORS AND USES THEREOF” (DICE MOLECULES SV, INC., priority 2022, published 2025):
Like-named read-outs stand apart in the source and are kept apart here.

Legend:
[1] = molecular target: α4β7 integrin (Homo sapiens (Human), UniProt P13612+P26010); experiment: Integrin Adhesion Assay: Protocol 4 (MAdCAM-coated plate, RPMI-8866 cells with stable LOF mutation of the ITGB1 gene); format: cell-based
Outline: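 RPMI-8866 cells with CRISPR/Cas9 knockout of ITGB1 (2×10^6/mL) were added to MAdCAM-coated wells with compound (1% DMSO) in HEPES/NaCl buffer with 1 mM MnCl2, 0.1 mM CaCl2 and 1% BSA, then incubated 1 h at 37 °C. After four washes, adherent cells were quantified by CellTiter-Glo luminescence. Percent inhibition versus DMSO and control compound was fitted to 4-parameter curves.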

[2] = molecular target: α4β1 integrin (Homo sapiens (Human), UniProt P05556+P13612); experiment: Integrin Adhesion Assay: Protocol 5 (VCAM-coated plate, RPMI-8866 cells with stable LOF mutation of the ITGB7 gene); format: cell-based
Sequence of α4β1 integrin (P13612 34-1032): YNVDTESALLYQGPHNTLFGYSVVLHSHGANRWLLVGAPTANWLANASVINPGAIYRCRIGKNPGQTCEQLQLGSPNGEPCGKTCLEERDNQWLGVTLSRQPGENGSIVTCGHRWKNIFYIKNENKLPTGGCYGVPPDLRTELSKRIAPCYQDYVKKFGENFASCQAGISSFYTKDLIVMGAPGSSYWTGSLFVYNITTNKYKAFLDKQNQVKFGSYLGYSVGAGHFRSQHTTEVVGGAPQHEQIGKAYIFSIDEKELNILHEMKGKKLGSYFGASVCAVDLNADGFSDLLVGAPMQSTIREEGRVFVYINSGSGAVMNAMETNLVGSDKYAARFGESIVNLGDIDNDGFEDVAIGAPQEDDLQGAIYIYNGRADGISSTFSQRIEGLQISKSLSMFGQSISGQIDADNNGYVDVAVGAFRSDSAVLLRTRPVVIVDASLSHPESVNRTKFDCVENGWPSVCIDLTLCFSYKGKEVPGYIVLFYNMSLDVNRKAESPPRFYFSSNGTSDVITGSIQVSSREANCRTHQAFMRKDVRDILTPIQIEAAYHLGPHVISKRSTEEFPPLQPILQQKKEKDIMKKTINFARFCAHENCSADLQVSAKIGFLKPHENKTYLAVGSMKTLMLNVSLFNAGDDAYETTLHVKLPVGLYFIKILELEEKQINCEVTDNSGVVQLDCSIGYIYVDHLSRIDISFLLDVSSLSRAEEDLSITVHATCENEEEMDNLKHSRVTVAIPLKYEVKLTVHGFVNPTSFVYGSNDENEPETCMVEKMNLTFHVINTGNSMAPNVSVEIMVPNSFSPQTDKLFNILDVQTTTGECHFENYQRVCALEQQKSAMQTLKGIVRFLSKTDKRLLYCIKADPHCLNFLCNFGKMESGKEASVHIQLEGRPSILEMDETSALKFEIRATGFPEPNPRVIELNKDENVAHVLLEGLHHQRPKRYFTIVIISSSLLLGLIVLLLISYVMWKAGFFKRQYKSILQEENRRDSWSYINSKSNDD
Sequence of α4β1 integrin (P05556 21-798): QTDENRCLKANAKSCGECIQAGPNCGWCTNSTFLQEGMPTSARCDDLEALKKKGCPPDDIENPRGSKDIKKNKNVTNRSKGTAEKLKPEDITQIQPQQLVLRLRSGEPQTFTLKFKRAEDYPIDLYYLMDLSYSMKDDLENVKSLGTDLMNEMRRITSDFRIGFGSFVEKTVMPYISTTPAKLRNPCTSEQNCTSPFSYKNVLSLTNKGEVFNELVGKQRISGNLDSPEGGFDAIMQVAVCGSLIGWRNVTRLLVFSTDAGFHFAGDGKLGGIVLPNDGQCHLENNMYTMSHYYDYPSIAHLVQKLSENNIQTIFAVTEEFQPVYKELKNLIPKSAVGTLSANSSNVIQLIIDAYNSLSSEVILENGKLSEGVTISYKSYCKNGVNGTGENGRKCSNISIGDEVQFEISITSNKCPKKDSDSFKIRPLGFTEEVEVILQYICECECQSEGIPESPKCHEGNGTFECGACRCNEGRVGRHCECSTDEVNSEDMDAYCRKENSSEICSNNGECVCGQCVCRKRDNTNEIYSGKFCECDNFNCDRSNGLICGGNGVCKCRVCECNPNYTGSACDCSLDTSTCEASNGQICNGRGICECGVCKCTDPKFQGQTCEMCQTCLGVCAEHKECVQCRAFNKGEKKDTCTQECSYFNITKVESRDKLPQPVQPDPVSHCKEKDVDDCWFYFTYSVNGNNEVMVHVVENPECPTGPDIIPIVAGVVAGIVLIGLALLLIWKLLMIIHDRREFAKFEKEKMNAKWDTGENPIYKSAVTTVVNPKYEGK
Outline: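 RPMI-8866 B cells with CRISPR/Cas9 ITGB7 knockout (clonal, verified by flow cytometry) adhered to VCAM-coated wells for 1 h at 37° C in HEPES/NaCl buffer with 1 mM MnCl2, 0.1 mM CaCl2, 1% BSA, 1% DMSO. Bound cells quantified by CellTiter-Glo luminescence after washing; % inhibition versus DMSO and control, 4-parameter fit.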

[3] = RPMI-8866 cells with stable LOF mutation of the ITGB1 gene, read-out: Mean IC50 α4β7 KO^a
[4] = RPMI-8866 cells with stable LOF mutation of the ITGB7 gene, read-out: Mean IC50 α4β1 KO^b
[5] = Protocol 4, RPMI-8866 cells with LOF mutation of ITGB1, MAdCAM, read-out: Mean IC50 α4β7 KO
[6] = Protocol 5, RPMI-8866 cells with LOF mutation of ITGB7, VCAM, read-out: Mean IC50 α4β1 KO

Sequence of α4β7 integrin (P13612 34-1032): as the sequence (P13612 34-1032) above
Sequence of α4β7 integrin (P26010 20-798): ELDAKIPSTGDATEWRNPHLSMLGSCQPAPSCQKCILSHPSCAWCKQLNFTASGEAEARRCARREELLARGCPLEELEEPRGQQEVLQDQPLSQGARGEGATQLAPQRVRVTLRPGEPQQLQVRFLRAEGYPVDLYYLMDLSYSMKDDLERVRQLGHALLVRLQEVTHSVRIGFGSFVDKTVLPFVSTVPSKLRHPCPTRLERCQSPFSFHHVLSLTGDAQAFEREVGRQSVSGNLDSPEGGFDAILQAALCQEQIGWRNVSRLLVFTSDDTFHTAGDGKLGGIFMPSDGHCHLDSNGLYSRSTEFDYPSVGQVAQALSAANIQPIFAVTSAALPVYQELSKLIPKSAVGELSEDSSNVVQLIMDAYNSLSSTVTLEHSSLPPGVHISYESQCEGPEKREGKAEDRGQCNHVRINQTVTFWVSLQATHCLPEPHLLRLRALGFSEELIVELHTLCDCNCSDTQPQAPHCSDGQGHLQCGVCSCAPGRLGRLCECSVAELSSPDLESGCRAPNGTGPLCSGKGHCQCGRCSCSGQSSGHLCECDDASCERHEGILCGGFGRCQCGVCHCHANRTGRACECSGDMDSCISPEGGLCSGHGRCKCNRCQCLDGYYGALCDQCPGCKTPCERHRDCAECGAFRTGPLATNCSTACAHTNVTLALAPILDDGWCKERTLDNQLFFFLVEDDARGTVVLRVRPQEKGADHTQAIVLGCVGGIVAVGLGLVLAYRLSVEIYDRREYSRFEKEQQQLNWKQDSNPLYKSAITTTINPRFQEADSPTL

Row | Structure (SMILES) | IC50 [1, 3] | IC50 [2, 4] | IC50 [1, 5] | IC50 [2, 6]
1 | COc1ccc(CN2CCCCC2)c(OC)c1-c1cccc2c(C[C@H](NC(=O)c3c(F)cccc3Br)C(=O)O)cccc12 [Compound 665] | < 10 nM | 100 to 1000 nM |  | 
2 | COc1cc(CN2CCCCC2)ccc1-c1cccc2c(C[C@H](NC(=O)c3c(C)cccc3F)C(=O)O)cccc12 [Compound 666] | 10 to 100 nM | > 1000 nM |  | 
3 | COc1ccc(CN2CCCCC2)cc1-c1cccc2c(C[C@H](NC(=O)c3c(C)cccc3F)C(=O)O)cccc12 [Compound 667] | 10 to 100 nM | > 1000 nM |  | 
4 | COc1ccc(CN2CCC(F)(F)CC2)c(OC)c1-c1cccc2c(C[C@H](NC(=O)C3(C(F)(F)F)CCN([C@@H]4COC[C@@H]4F)CC3)C(=O)O)cccc12 [Compound 668] | < 10 nM | > 1000 nM |  | 
5 | COc1ccc(CN2CCC(F)(F)CC2)c(OC)c1-c1cccc2c(C[C@H](NC(=O)C3(C(F)(F)F)CCN([C@H]4COC[C@@H]4F)CC3)C(=O)O)cccc12 [Compound 669] | < 10 nM | > 1000 nM |  | 
6 | COc1ccc(CN2CCC(F)(F)CC2)c(OC)c1-c1cccc2c(C[C@H](NC(=O)C3(C(F)(F)F)CCN([C@@H]4COC[C@H]4F)CC3)C(=O)O)cccc12 [Compound 670] | 10 to 100 nM | 100 to 1000 nM |  | 
7 | COc1ccc(CN2CCC[C@H](F)C2)c(OC)c1-c1cccc2c(C[C@H](NC(=O)c3c(C)cccc3F)C(=O)O)cccc12 [Compound 671] | < 10 nM | 100 to 1000 nM |  | 
8 | COc1ccc(CN2CCC[C@@H](F)C2)c(OC)c1-c1cccc2c(C[C@H](NC(=O)c3c(C)cccc3F)C(=O)O)cccc12 [Compound 672] | < 10 nM | 100 to 1000 nM |  | 
9 | COc1cc2c(c(C(F)(F)F)c1-c1cccc3c(C[C@H](NC(=O)C4(C(F)(F)F)CCN(CC(F)(F)F)CC4)C(=O)O)cccc13)CCN(CC(F)(F)F)C2 [Compound 673] | 10 to 100 nM | > 1000 nM |  | 
10 | COc1cccc(CN2CCCCC2)c1-c1cccc2c(C[C@H](NC(=O)c3c(F)cccc3Cl)C(=O)O)cccc12 [Compound 674] | < 10 nM | 100 to 1000 nM |  | 
11 | COc1cccc(F)c1C(=O)N[C@@H](Cc1cccc2c(-c3c(CN4CCCCC4)cccc3OC)cccc12)C(=O)O [Compound 675] | < 10 nM | 100 to 1000 nM |  | 
12 | CCC1(C(=O)N[C@@H](Cc2cccc3c(-c4ncc(CN5CCCCC5)c5ccccc45)cccc23)C(=O)O)CCN(CC(F)(F)F)CC1 [Compound 676] | < 10 nM | > 1000 nM |  | 
13 | N#CC1(C(=O)N[C@@H](Cc2cccc3c(-c4ncc(CN5CCCCC5)c5ccccc45)cccc23)C(=O)O)CCN(CC(F)(F)F)CC1 [Compound 677] | 10 to 100 nM | > 1000 nM |  | 
14 | CC1(C(=O)N[C@@H](Cc2cccc3c(-c4ncc(CN5CCCCC5)c5ccccc45)cccc23)C(=O)O)CC2CCC(C1)N2CC(F)(F)F (stereo partly drawn) [Compound 679] | 10 to 100 nM | > 1000 nM |  | 
15 | O=C(O)[C@H](Cc1cccc2c(-c3ncc(CN4CCCCC4)c4ccccc34)cccc12)NC(=O)C1(C(F)(F)F)CCN([C@H]2COCC2(F)F)CC1 [Compound 680] | < 10 nM | 100 to 1000 nM |  | 
16 | O=C(O)[C@H](Cc1cccc2c(-c3ncc(CN4CCCCC4)c4ccccc34)cccc12)NC(=O)C1(C(F)(F)F)CCN(C2CC(F)(F)C2)CC1 [Compound 681] | < 10 nM | 100 to 1000 nM |  | 
17 | O=C(O)[C@H](Cc1cccc2c(-c3ncc(CN4CCCCC4)c4ccccc34)cccc12)NC(=O)C1(C(F)(F)F)CCN(CCC(F)(F)F)CC1 [Compound 682] | < 10 nM | > 1000 nM |  | 
18 | O=C(O)[C@H](Cc1cccc2c(-c3ncc(CN4CCCCC4)c4ccccc34)cccc12)NC(=O)C1(C(F)(F)F)CCN(CC2(C(F)(F)F)CC2)CC1 [Compound 683] | < 10 nM | > 1000 nM |  | 

Row | Structure (SMILES) | IC50 [1, 3] | IC50 [2, 4] | IC50 [1, 5] | IC50 [2, 6]
19 | CC1(C(=O)N[C@@H](Cc2cccc3c(-c4ncc(CN5CCCCC5)c5ccccc45)cccc23)C(=O)O)CC2CCC(C1)N2CC(F)F (stereo partly drawn) [Compound 684] | 10 to 100 nM | > 1000 nM |  | 
20 | CC1(C(=O)N[C@@H](Cc2cccc3c(-c4ncc(CN5CCCCC5)c5ccccc45)cccc23)C(=O)O)CC2CCC(C1)N2C1COC1 (stereo partly drawn) [Compound 685] | 10 to 100 nM | > 1000 nM |  | 
21 | CC1(C(=O)N[C@@H](Cc2cccc3c(-c4ncc(CN5CCCCC5)c5ccccc45)cccc23)C(=O)O)CCN(CC(F)F)CC1 [Compound 687] |  |  | < 10 nM | > 1000 nM
22 | Cc1cccc(F)c1C(=O)N[C@@H](Cc1cccc2c(-c3cc(CN4CCCCC4)ccn3)cccc12)C(=O)O [Compound 688] |  |  | 10 to 100 nM | > 1000 nM
23 | O=C(O)[C@H](Cc1cccc2c(-c3ncc(CN4CCC5(CC4)CC5)c4ccccc34)cccc12)NC(=O)C1(C(F)(F)F)CCN(C2COC2)CC1 [Compound 694] |  |  | < 10 nM | 100 to 1000 nM
24 | CN(C)Cc1ccc(-c2cccc3c(C[C@H](NC(=O)C4(C(F)(F)F)CCN(CC(F)(F)F)CC4)C(=O)O)cccc23)c2cnccc12 [Compound 695] |  |  | < 10 nM | > 1000 nM
25 | CN(C)Cc1ccc2c(c1)c(C(F)(F)F)c(-c1cccc3c(C[C@H](NC(=O)C4(C(F)(F)F)CCN(CC(F)(F)F)CC4)C(=O)O)cccc13)c(=O)n2C [Compound 696] |  |  | < 10 nM | 10 to 100 nM
26 | Cc1cc(C(F)(F)F)cc(F)c1C(=O)N[C@@H](Cc1cccc2c(-c3c(C(F)(F)F)c4cc(CN(C)C)ccc4n(C)c3=O)cccc12)C(=O)O [Compound 700] |  |  | 10 to 100 nM | > 1000 nM
27 | CN(C)Cc1ccc2c(c1)c(C(F)(F)F)c(-c1cccc3c(C[C@H](NC(=O)c4c(F)cccc4CN4CCC(F)(F)CC4)C(=O)O)cccc13)c(=O)n2C [Compound 701] |  |  | 10 to 100 nM | > 1000 nM
28 | O=C(O)[C@H](Cc1cccc2c(-c3ccc(CN4CCCCC4)c4ccncc34)cccc12)NC(=O)C1(C(F)(F)F)CCN(CC(F)(F)F)CC1 [Compound 702] |  |  | < 10 nM | > 1000 nM
29 | COc1ccc(CN(C)C)c(OC(F)(F)F)c1-c1cccc2c(C[C@H](NC(=O)c3c(C)cccc3F)C(=O)O)cccc12 [Compound 703] |  |  | < 10 nM | 100 to 1000 nM
30 | COc1c(CN2CCCCC2)ccc(OC(F)(F)F)c1-c1cccc2c(C[C@H](NC(=O)c3c(C)cccc3F)C(=O)O)cccc12 [Compound 704] |  |  | 10 to 100 nM | > 1000 nM
31 | Cc1cccc(F)c1C(=O)N[C@@H](Cc1cccc2c(-c3c(C(F)(F)F)c4cc(CCN(C)C)ccc4n(C)c3=O)cccc12)C(=O)O [Compound 706] |  |  | < 10 nM | 100 to 1000 nM
32 | CN(C)CCc1ccc2c(c1)c(C(F)(F)F)c(-c1cccc3c(C[C@H](NC(=O)C4(C(F)(F)F)CCN(CC(F)(F)F)CC4)C(=O)O)cccc13)c(=O)n2C [Compound 707] |  |  | < 10 nM | 10 to 100 nM
33 | Cn1c(=O)c(-c2cccc3c(C[C@H](NC(=O)c4c(F)cccc4F)C(=O)O)cccc23)c(C(F)(F)F)c2cc(CCN3CCC3)ccc21 [Compound 709] |  |  | < 10 nM | > 1000 nM
34 | Cn1c(=O)c(-c2cccc3c(C[C@H](NC(=O)c4c(F)cccc4F)C(=O)O)cccc23)c(C(F)(F)F)c2cc(CCN3CCCC3)ccc21 [Compound 710] |  |  | < 10 nM | 100 to 1000 nM
35 | CN(C)CCc1ccc2c(c1)c(C(F)(F)F)c(-c1cccc3c(C[C@H](NC(=O)c4c(F)cccc4CN4CCC(F)(F)CC4)C(=O)O)cccc13)c(=O)n2C [Compound 711] |  |  | < 10 nM | 100 to 1000 nM
36 | Cc1cccc(F)c1C(=O)N[C@@H](Cc1cccc2c(-c3c(C(F)(F)F)c4cc(CCN5CCC(F)(F)C5)ccc4n(C)c3=O)cccc12)C(=O)O [Compound 712] |  |  | 10 to 100 nM | > 1000 nM
